From ChEMBL document CHEMBL3885881, “DrugMatrix”

Organism: Rattus norvegicus
Assay: DrugMatrix - Regimen: Daily Repeat
Format: toxicity, organism-based, Sprague-Dawley
Design: regimen Daily Repeat, gender Male, age 6-8 weeks
Conditions: in vivo, po, route oral GAVAGE, vehicle 100 % WATER; for ABSOLUTE BASOPHIL / ABSOLUTE EOSINOPHIL / ABSOLUTE LYMPHOCYTE / ABSOLUTE MONOCYTE / ABSOLUTE SEGMENTED NEUTROPHIL / BASOPHIL / EOSINOPHIL / ERYTHROCYTE COUNT / HEMATOCRIT / HEMOGLOBIN / LEUKOCYTE COUNT / LYMPHOCYTE / MEAN CORPUSCULAR HEMOGLOBIN / MEAN CORPUSCULAR HEMOGLOBIN CONCENTRATION / MEAN CORPUSCULAR VOLUME / MONOCYTE / NEUTROPHIL / NUCLEATED RED BLOOD CELLS / PLATELET COUNT: tissue Blood; for ALANINE AMINOTRANSFERASE / ALBUMIN / ALKALINE PHOSPHATASE / ASPARTATE AMINOTRANSFERASE / BLOOD UREA NITROGEN / CARBON DIOXIDE / CHLORIDE / CHOLESTEROL / CREATINE PHOSPHOKINASE / CREATININE / GLUCOSE / LACTATE DEHYDROGENASE / LIPASE / PHOSPHORUS / POTASSIUM / SODIUM / TOTAL BILIRUBIN / TOTAL PROTEIN / URIC ACID: tissue Plasma
[1] = 10 mg/kg, 120 h, dose level Low, time 5 day
[2] = 230 mg/kg, 72 h, dose level High, time 3 day
[3] = 230 mg/kg, 120 h, dose level High, time 5 day

CCN(CC)CC#CCOC(=O)C(O)(c1ccccc1)C1CCCCC1 (centres undefined) [OXYBUTYNIN]
ABSOLUTE BASOPHIL [1]: 0 CELLS/uL
ABSOLUTE EOSINOPHIL [1]: 0 CELLS/uL
ABSOLUTE LYMPHOCYTE [1]: 12363 CELLS/uL
ABSOLUTE MONOCYTE [1]: 41 CELLS/uL
ABSOLUTE SEGMENTED NEUTROPHIL [1]: 1896 CELLS/uL
BASOPHIL [1]: 0%
EOSINOPHIL [1]: 0%
ERYTHROCYTE COUNT [1]: 5.64 x10E6/uL
HEMATOCRIT [1]: 34.63%
HEMOGLOBIN [1]: 13.8 G/DL
LEUKOCYTE COUNT [1]: 14.3 x10E3/uL
LYMPHOCYTE [1]: 86.33%
MEAN CORPUSCULAR HEMOGLOBIN [1]: 24.47 pg
MEAN CORPUSCULAR HEMOGLOBIN CONCENTRATION [1]: 39.83 G/DL
MEAN CORPUSCULAR VOLUME [1]: 61.4 fL
MONOCYTE [1]: 0.33%
NEUTROPHIL [1]: 13.33%
NUCLEATED RED BLOOD CELLS [1]: 0 /100WBC
PLATELET COUNT [1]: 1196.33 x10E3/uL
ALANINE AMINOTRANSFERASE [1]: 57 u/L
ALBUMIN [1]: 4.07 G/DL
ALKALINE PHOSPHATASE [1]: 391.67 u/L
ASPARTATE AMINOTRANSFERASE [1]: 79 u/L
BLOOD UREA NITROGEN [1]: 17.67 mg/dL
CARBON DIOXIDE [1]: 27 mmol/L
CHLORIDE [1]: 99.67 MEQ/L
CHOLESTEROL [1]: 67 mg/dL
CREATINE PHOSPHOKINASE [1]: 306.33 u/L
CREATININE [1]: 0.2 mg/dL
GLUCOSE [1]: 152.33 mg/dL
LACTATE DEHYDROGENASE [1]: 146.67 u/L
LIPASE [1]: 9 u/L
PHOSPHORUS [1]: 11.87 mg/dL
POTASSIUM [1]: 6.33 MEQ/L
SODIUM [1]: 141.53 MEQ/L
TOTAL BILIRUBIN [1]: 0.23 mg/dL
TOTAL PROTEIN [1]: 5.87 G/DL
URIC ACID [1]: 1.93 mg/dL
ABSOLUTE BASOPHIL [2]: 0 CELLS/uL
ABSOLUTE EOSINOPHIL [2]: 99.33 CELLS/uL
ABSOLUTE LYMPHOCYTE [2]: 11911 CELLS/uL
ABSOLUTE MONOCYTE [2]: 110.67 CELLS/uL
ABSOLUTE SEGMENTED NEUTROPHIL [2]: 1845.67 CELLS/uL
BASOPHIL [2]: 0%
EOSINOPHIL [2]: 0.67%
ERYTHROCYTE COUNT [2]: 6.5 x10E6/uL
HEMATOCRIT [2]: 39.53%
HEMOGLOBIN [2]: 15.4 G/DL
LEUKOCYTE COUNT [2]: 13.97 x10E3/uL
LYMPHOCYTE [2]: 85.67%
MEAN CORPUSCULAR HEMOGLOBIN [2]: 23.7 pg
MEAN CORPUSCULAR HEMOGLOBIN CONCENTRATION [2]: 38.93 G/DL
MEAN CORPUSCULAR VOLUME [2]: 60.77 fL
MONOCYTE [2]: 0.67%
NEUTROPHIL [2]: 13%
NUCLEATED RED BLOOD CELLS [2]: 0 /100WBC
PLATELET COUNT [2]: 1396.33 x10E3/uL
ALANINE AMINOTRANSFERASE [2]: 51.33 u/L
ALBUMIN [2]: 4.33 G/DL
ALKALINE PHOSPHATASE [2]: 293.33 u/L
ASPARTATE AMINOTRANSFERASE [2]: 83.33 u/L
BLOOD UREA NITROGEN [2]: 16 mg/dL
CARBON DIOXIDE [2]: 29.67 mmol/L
CHLORIDE [2]: 98 MEQ/L
CHOLESTEROL [2]: 57.33 mg/dL
CREATINE PHOSPHOKINASE [2]: 488 u/L
CREATININE [2]: 0.18 mg/dL
GLUCOSE [2]: 140.67 mg/dL
LACTATE DEHYDROGENASE [2]: 180 u/L
LIPASE [2]: 9.67 u/L
PHOSPHORUS [2]: 11.4 mg/dL
POTASSIUM [2]: 6.48 MEQ/L
SODIUM [2]: 141.17 MEQ/L
TOTAL BILIRUBIN [2]: 0.23 mg/dL
TOTAL PROTEIN [2]: 5.87 G/DL
URIC ACID [2]: 2.47 mg/dL
ABSOLUTE BASOPHIL [3]: 0 CELLS/uL
ABSOLUTE EOSINOPHIL [3]: 0 CELLS/uL
ABSOLUTE LYMPHOCYTE [3]: 14094.33 CELLS/uL
ABSOLUTE MONOCYTE [3]: 0 CELLS/uL
ABSOLUTE SEGMENTED NEUTROPHIL [3]: 1405.67 CELLS/uL
BASOPHIL [3]: 0%
EOSINOPHIL [3]: 0%
ERYTHROCYTE COUNT [3]: 6.31 x10E6/uL
HEMATOCRIT [3]: 37.53%
HEMOGLOBIN [3]: 15.13 G/DL
LEUKOCYTE COUNT [3]: 15.5 x10E3/uL
LYMPHOCYTE [3]: 90.67%
MEAN CORPUSCULAR HEMOGLOBIN [3]: 23.97 pg
MEAN CORPUSCULAR HEMOGLOBIN CONCENTRATION [3]: 40.33 G/DL
MEAN CORPUSCULAR VOLUME [3]: 59.43 fL
MONOCYTE [3]: 0%
NEUTROPHIL [3]: 9.33%
NUCLEATED RED BLOOD CELLS [3]: 0 /100WBC
PLATELET COUNT [3]: 1402.33 x10E3/uL
ALANINE AMINOTRANSFERASE [3]: 64.67 u/L
ALBUMIN [3]: 4.33 G/DL
ALKALINE PHOSPHATASE [3]: 412.33 u/L
ASPARTATE AMINOTRANSFERASE [3]: 87 u/L
BLOOD UREA NITROGEN [3]: 15.67 mg/dL
CARBON DIOXIDE [3]: 26.67 mmol/L
CHLORIDE [3]: 100.33 MEQ/L
CHOLESTEROL [3]: 59.67 mg/dL
CREATINE PHOSPHOKINASE [3]: 224 u/L
CREATININE [3]: 0.17 mg/dL
GLUCOSE [3]: 140.33 mg/dL
LACTATE DEHYDROGENASE [3]: 208.33 u/L
LIPASE [3]: 9.33 u/L
PHOSPHORUS [3]: 10 mg/dL
POTASSIUM [3]: 6.76 MEQ/L
SODIUM [3]: 143.4 MEQ/L
TOTAL BILIRUBIN [3]: 0.2 mg/dL
TOTAL PROTEIN [3]: 5.9 G/DL
URIC ACID [3]: 2.23 mg/dL
